Laboratory results reported in ChEMBL document CHEMBL1909046, “DrugMatrix in vitro pharmacology data”.

Experiments:
[1] = DRUGMATRIX: Calcium Channel Type L, Dihydropyridine radioligand binding (ligand: [3H] Nitrendipine); assay type: cell membranes, Rattus norvegicus, Wistar, Cerebral cortex, Membrane; settings: Not Active = under 50% inhibition at 10 µM
[2] = DRUGMATRIX: Potassium Channel [KATP] radioligand binding (ligand: [3H] Glyburide); assay type: cell membranes, Membrane; settings: hit-t15; Not Active = under 50% inhibition at 10 µM
Melanocortin receptor 4 = Melanocortin receptor 4 (Homo sapiens, UniProt P32245); assay type: cell membranes, Membrane; settings: hek293; note: in other assays of this panel Not Active means under 50% inhibition at 10 µM
D(3) dopamine receptor = D(3) dopamine receptor (Homo sapiens, UniProt P35462); test: DRUGMATRIX: Dopamine D3 radioligand binding (ligand: [3H] Spiperone); assay type: cell membranes, CHO, Membrane; settings: cho
[3] = DRUGMATRIX: Phosphodiesterase PDE4 enzyme inhibition (substrate: [3H]cAMP + cAMP); settings: u-937; Not Active = under 50% inhibition at 10 µM
Cytochrome P450 3A4 = Cytochrome P450 3A4 (Homo sapiens, UniProt P08684); settings: bti-tn-5b1-4; note: in other assays of this panel Not Active means under 50% inhibition at 10 µM
[4] = DRUGMATRIX: ATPase, Na+/K+ enzyme inhibition (substrate: ATP); assay type: tissue-based, Sus scrofa, Heart; settings: Not Active = under 50% inhibition at 10 µM
[5] = molecular target: Matrix metalloproteinase-9 (Homo sapiens, UniProt P14780); assay type: cell-based;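 note: inhibition of isolated MMP-9 enzyme activity toward a synthetic peptide substrate, from the DrugMatrix protease screening panel; in other assays of this panel Not Active means under 50% inhibition at 10 µM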
[6] = molecular target: T1, Neuropeptide Y receptor type 2 (Homo sapiens, UniProt P49146); assay type: cell membranes, Membrane; settings: kan-ts; note: in other assays of this panel Not Active means under 50% inhibition at 10 µM
T1 sequence (P49146 whole entry): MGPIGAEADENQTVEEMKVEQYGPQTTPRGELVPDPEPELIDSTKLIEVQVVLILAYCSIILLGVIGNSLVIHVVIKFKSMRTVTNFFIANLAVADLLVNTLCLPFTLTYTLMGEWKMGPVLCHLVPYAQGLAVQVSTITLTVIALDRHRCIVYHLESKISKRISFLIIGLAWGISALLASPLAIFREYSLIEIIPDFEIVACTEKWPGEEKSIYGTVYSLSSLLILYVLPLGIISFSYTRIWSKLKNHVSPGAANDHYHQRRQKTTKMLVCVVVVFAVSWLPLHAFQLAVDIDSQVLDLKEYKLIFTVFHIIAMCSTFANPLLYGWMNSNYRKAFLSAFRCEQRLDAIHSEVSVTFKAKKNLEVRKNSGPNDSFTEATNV

Adenosine receptor A3 = molecular target: T2, Adenosine receptor A3 (Homo sapiens, UniProt P0DMS8); assay type: cell membranes, CHO-K1, Membrane; settings: cho-k1
T2 sequence (P0DMS8 whole entry): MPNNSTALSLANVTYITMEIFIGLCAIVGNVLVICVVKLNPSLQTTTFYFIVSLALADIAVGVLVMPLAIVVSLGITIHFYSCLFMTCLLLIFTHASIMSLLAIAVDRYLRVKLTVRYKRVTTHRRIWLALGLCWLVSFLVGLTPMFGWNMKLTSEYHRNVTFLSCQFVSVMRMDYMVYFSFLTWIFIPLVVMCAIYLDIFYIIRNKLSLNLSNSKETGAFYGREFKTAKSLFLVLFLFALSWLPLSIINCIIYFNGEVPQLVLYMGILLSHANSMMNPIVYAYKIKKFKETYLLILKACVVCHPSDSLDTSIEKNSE

Substance-P receptor = Substance-P receptor (Homo sapiens, UniProt P25103); assay type: cell membranes, CHO, Membrane; settings: cho; note: in other assays of this panel Not Active means under 50% inhibition at 10 µM
Acetylcholinesterase = Acetylcholinesterase (Homo sapiens, UniProt P22303); test: DRUGMATRIX: Acetylcholinesterase enzyme inhibition (substrate: acetylthiocholine); assay type: cell-based, HEK293; settings: hek293; Not Active = under 50% inhibition at 10 µM
Cannabinoid receptor 1 = Cannabinoid receptor 1 (Homo sapiens, UniProt P21554); assay type: cell membranes, Membrane; settings: chem-1; note: in other assays of this panel Not Active means under 50% inhibition at 10 µM
Insulin receptor = Insulin receptor (Rattus norvegicus, UniProt P15127); assay type: cell membranes, Wistar, Liver, Membrane; note: in other assays of this panel Not Active means under 50% inhibition at 10 µM
[7] = DRUGMATRIX: beta-Lactamase enzyme inhibition (substrate: Nitrocefin); parameters: species or system Bacillus cereus; settings: Not Active = under 50% inhibition at 10 µM

Cytochrome P450 3A4, sequence (P08684 whole entry): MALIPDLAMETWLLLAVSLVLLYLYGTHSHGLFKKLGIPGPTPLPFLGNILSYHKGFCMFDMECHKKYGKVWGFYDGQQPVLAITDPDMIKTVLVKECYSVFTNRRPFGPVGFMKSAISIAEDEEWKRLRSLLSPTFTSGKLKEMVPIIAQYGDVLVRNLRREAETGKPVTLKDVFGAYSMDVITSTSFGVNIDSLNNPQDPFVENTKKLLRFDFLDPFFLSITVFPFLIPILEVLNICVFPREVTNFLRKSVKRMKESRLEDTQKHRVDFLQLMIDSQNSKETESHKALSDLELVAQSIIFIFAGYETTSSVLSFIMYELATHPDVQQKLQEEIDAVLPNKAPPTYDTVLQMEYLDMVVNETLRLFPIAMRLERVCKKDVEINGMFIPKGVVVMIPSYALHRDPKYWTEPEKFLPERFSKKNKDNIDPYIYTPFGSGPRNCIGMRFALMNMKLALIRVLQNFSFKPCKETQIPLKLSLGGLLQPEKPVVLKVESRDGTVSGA
Insulin receptor, sequence (P15127 27-759 limits assumed): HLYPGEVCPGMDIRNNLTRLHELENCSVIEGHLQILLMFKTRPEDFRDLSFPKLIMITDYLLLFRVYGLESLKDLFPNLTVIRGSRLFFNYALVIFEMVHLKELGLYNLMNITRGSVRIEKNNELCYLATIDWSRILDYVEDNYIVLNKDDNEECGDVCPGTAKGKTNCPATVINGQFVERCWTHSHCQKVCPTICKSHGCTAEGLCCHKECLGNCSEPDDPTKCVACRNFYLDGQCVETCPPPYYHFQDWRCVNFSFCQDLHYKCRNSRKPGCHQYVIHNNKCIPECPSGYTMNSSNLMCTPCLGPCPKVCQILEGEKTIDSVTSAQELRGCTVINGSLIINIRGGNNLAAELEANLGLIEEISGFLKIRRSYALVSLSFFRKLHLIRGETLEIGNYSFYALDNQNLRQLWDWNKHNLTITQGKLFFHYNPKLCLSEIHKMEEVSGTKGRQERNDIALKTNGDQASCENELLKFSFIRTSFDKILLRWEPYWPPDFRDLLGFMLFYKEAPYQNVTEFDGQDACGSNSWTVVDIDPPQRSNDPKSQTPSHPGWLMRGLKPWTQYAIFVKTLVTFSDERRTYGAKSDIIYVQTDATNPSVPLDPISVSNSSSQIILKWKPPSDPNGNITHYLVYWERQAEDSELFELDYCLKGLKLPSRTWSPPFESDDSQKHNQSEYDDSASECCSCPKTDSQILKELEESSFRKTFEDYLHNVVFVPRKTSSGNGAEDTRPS
Insulin receptor, sequence (P15127 764-1383 limits assumed): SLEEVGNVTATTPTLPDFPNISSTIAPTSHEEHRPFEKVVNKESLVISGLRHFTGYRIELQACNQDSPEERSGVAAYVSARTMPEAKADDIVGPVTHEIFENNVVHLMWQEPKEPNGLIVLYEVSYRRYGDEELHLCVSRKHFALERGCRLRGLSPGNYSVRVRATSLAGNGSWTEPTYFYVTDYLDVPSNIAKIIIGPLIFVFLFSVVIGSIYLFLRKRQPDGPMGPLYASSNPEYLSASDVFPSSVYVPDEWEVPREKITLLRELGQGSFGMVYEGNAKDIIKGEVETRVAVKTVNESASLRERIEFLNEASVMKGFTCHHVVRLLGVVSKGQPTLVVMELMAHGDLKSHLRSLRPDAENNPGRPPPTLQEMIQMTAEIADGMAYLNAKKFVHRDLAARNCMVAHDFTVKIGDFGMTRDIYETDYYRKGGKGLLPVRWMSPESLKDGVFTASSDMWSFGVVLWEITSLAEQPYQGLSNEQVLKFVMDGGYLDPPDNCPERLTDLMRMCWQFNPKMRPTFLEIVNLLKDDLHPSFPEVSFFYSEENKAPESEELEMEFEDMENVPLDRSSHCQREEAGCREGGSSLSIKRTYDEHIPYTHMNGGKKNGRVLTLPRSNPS
Matrix metalloproteinase-9, sequence (P14780 whole entry): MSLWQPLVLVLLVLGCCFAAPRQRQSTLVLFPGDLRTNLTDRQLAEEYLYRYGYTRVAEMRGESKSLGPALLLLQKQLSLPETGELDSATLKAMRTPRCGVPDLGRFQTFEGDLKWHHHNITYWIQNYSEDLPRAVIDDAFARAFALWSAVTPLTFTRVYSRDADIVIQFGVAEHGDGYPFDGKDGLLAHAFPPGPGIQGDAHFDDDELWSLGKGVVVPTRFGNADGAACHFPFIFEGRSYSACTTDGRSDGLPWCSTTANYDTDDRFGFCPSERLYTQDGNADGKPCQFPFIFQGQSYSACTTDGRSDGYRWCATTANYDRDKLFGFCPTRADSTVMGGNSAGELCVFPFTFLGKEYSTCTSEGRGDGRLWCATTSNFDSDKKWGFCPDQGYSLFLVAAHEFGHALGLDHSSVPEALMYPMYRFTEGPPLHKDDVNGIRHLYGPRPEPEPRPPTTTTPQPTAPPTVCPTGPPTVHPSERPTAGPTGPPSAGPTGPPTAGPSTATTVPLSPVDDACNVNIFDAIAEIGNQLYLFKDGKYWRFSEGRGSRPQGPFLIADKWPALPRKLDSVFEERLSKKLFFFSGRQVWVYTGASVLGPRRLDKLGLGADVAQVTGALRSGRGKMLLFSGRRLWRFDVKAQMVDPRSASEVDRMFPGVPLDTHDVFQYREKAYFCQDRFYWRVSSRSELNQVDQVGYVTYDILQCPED
D(3) dopamine receptor, sequence (P35462 whole entry): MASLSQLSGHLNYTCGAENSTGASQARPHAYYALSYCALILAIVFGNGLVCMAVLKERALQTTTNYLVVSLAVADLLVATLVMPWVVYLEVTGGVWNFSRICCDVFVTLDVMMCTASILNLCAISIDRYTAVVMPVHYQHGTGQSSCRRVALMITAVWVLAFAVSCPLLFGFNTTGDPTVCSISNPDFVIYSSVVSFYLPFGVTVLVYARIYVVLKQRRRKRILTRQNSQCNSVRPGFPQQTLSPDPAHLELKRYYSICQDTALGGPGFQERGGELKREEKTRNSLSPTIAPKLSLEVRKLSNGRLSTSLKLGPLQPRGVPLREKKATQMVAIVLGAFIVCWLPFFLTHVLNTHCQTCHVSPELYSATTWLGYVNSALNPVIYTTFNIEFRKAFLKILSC
Substance-P receptor, sequence (P25103 whole entry): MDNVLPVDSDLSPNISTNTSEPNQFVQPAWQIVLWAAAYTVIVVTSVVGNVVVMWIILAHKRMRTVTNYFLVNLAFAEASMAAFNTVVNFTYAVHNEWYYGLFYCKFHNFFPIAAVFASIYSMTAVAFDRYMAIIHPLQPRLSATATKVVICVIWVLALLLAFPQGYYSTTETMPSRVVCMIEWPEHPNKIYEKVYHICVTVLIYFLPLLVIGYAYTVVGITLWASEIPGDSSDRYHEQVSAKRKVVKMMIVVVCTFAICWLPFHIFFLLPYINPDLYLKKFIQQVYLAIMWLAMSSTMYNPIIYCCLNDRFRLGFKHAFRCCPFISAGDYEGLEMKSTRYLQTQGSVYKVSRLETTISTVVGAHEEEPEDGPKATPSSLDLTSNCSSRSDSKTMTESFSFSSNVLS
Cannabinoid receptor 1, sequence (P21554 whole entry): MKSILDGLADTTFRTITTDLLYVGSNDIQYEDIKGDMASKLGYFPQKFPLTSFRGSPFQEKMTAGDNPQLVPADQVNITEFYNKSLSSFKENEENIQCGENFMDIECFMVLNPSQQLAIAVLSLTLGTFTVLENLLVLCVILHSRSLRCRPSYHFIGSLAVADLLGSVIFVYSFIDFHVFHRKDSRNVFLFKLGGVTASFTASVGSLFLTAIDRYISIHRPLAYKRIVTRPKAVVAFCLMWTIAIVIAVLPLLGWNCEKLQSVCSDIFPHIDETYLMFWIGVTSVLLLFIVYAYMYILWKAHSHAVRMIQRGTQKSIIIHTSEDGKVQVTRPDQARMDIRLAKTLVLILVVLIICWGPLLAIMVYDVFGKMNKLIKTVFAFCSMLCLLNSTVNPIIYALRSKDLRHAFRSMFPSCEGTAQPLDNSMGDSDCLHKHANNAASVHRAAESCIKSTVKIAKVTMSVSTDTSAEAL
Melanocortin receptor 4, sequence (P32245 whole entry): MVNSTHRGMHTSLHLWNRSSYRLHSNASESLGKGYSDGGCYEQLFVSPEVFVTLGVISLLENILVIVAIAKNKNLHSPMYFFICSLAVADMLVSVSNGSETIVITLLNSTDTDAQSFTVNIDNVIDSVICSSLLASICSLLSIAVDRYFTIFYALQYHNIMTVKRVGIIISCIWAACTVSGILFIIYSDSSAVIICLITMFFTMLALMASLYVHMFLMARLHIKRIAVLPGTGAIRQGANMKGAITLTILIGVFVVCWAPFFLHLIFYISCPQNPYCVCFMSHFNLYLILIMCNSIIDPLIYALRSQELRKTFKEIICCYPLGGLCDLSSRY
Acetylcholinesterase, sequence (P22303 whole entry): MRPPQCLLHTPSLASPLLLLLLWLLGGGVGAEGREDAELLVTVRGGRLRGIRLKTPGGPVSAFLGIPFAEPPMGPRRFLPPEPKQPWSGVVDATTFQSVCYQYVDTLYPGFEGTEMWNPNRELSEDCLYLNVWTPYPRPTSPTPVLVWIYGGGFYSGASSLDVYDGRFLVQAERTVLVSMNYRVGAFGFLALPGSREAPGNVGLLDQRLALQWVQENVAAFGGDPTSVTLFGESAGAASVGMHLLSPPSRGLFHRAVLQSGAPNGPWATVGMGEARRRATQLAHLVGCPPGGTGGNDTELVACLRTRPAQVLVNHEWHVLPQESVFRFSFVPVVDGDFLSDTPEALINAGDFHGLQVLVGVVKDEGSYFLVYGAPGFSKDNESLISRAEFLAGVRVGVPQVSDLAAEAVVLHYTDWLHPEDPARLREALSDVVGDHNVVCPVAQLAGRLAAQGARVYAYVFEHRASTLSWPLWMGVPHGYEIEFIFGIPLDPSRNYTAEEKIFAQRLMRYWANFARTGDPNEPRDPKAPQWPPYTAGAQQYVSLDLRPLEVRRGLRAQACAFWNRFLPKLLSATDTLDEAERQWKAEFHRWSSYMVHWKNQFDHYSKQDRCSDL

NCC[C@H](O)C(=O)N[C@@H]1C[C@H](N)[C@@H](O[C@H]2O[C@H](CN)[C@@H](O)[C@H](O)[C@H]2O)[C@H](O)[C@H]1O[C@H]1O[C@H](CO)[C@@H](O)[C@H](N)[C@H]1O [AMIKACIN]
Not Active: IC50 [1] | Ki [1] | IC50 [2] | Ki [2] | IC50 (Melanocortin receptor 4) | IC50 (D(3) dopamine receptor) | IC50 [3] | Ki [3] | IC50 (Cytochrome P450 3A4) | Ki (Cytochrome P450 3A4) | IC50 [4] | Ki [4] | IC50 [5] | IC50 [6] | IC50 (Adenosine receptor A3) | IC50 (Substance-P receptor) | IC50 (Acetylcholinesterase) | IC50 (Cannabinoid receptor 1) | IC50 (Insulin receptor) | IC50 [7] | Ki [7]

CCOC(=O)OC(C)OC1=C(C(=O)Nc2ccccn2)N(C)S(=O)(=O)c2ccccc21 (stereo not drawn) [AMPIROXICAM]
Not Active: IC50 [1] | Ki [1] | IC50 [2] | Ki [2] | IC50 (Melanocortin receptor 4) | IC50 (D(3) dopamine receptor) | IC50 [3] | Ki [3] | IC50 (Cytochrome P450 3A4) | Ki (Cytochrome P450 3A4) | IC50 [4] | Ki [4] | IC50 [5] | IC50 [6] | IC50 (Adenosine receptor A3) | IC50 (Substance-P receptor) | IC50 (Acetylcholinesterase) | IC50 (Cannabinoid receptor 1) | IC50 (Insulin receptor) | IC50 [7] | Ki [7]

N#C[C@H](O[C@@H]1O[C@H](CO[C@@H]2O[C@H](CO)[C@@H](O)[C@H](O)[C@H]2O)[C@@H](O)[C@H](O)[C@H]1O)c1ccccc1 [AMYGDALIN]
Not Active: IC50 [1] | Ki [1] | IC50 [2] | Ki [2] | IC50 (Melanocortin receptor 4) | IC50 (D(3) dopamine receptor) | IC50 [3] | Ki [3] | IC50 (Cytochrome P450 3A4) | Ki (Cytochrome P450 3A4) | IC50 [4] | Ki [4] | IC50 [5] | IC50 [6] | IC50 (Adenosine receptor A3) | IC50 (Substance-P receptor) | IC50 (Acetylcholinesterase) | IC50 (Cannabinoid receptor 1) | IC50 (Insulin receptor) | IC50 [7] | Ki [7]
